We go through two molecules from US11696898B2, “Halogenated ether compounds and methods of inducing anesthesia” (The Regents of the University of California, priority 2014, dated 2023).

In test [1] the test system is NMDA receptors. The test can be described thus: NMDA receptor modulation at a saturated aqueous phase concentration. The class given is cell-based.
In test [2] the test system is mice. The test can be described thus: General anesthesia in mice (MAC for loss of righting reflex). The class given is in vivo. The settings on record: inhaled, closed microcircuit. As for the experimental part: In a method to measure the minimum alveolar concentration (MAC) for Loss Of Righting Reflex (MACLORR), for assessing the performance of a compound as a general anesthetic, mice were placed in a 3.5 cm diameter, 14.5 cm long acrylic cylinder connected on either end via unidirectional valves to a closed microcircuit containing a carbon dioxide absorbent vessel, latex balloon breathing bag, sampling port, and 100 mL glass syringe-driven piston. […] The procedures for measuring MACLORR and MAC, as well as general methods for measuring agent concentrations by gas chromatography, have been described in Deady J E, Koblin D D, Eger E I, 2nd, Heavner J E, D'Aoust B: Anesthetic potencies and the unitary theory of narcosis. Anesth Analg 1981; 60: 380-4; Brosnan R J, Thiesen R: Increased NMDA receptor inhibition at an increased Sevoflurane MAC. BMC Anesthesiol 2012; 12: 9; and Brosnan R J: GABA(A) receptor antagonism increases NMDA receptor inhibition by isoflurane at a minimum alveolar concentration. Vet Anaesth Analg 2011; 38: 231-9, the disclosures of which are incorporated by reference in their entireties.

Entries after “also recorded” stand apart in the source; their conditions may differ. Read-outs that look alike come from different tables or passages of the source.

For `COC(F)(C(F)(F)F)C(F)(F)F` [Propane, 1,1,1,2,3,3,3-heptafluoro-2-methoxy-], the “modulation/inhibition of NMDA receptors” value in test [1] was “inhibits NMDA receptors”. With `FC(OC(F)(F)F)C(F)(F)Br` (stereo not drawn) [Ethane, 1-bromo-1,1,2-trifluoro-2-(trifluoromethoxy)-], in test [1] (listed as 1-bromo-1,1,2-trifluoro-2-(trifluoromethoxy)-ethane), the “modulation/inhibition of NMDA receptors” value is listed as “devoid of NMDA receptor effects; also recorded: does not modulate NMDA receptors”. Besides, in test [2], the “general anesthesia in mice” value was “produced general anesthesia”.
